Source: patent US20070082883A1, “HIV protease inhibitors” (THE BOARD OF TRUSTEES OF THE UNIVERSITY OF ILLINOIS, priority 2002, published 2007)
Non-standard residues stand in square brackets, D forms with d. Residues, ends and D or L forms follow the SMILES beside them. Phe(4-NO2) = N[C@@H](Cc1ccc([N+](=O)[O-])cc1)C(=O)O; Nle = CCCC[C@H](N)C(=O)O; 2Abz = Nc1ccccc1C(=O)O

Experiments:
[1] = target: T1, HIV-1 protease (Human immunodeficiency virus type 1 group M subtype B, UniProt P04585); assay: Kinetic measurements of the cleavage of anthranilyl fluorogenic substrate by HIV-1 protease; format: biochemical; conditions: purified refolded HIV-1 protease; read-out: Michaelis constant for the substrate Km
T1 construct: made in house; host or cells: E. coli BL21 (dE3)pLysS, pET30a vector
Text: The HIV-1 protease gene was subcloned into the pET30a vector (Novagen) and then transformed into BL21 (dE3)pLysS cells for protein expression. Protein expression and purification were followed according to Tang's procedure (Hong et al., Biochemistry, 1996, 35, 10627-10633). […] The inclusion body containing some bacterial proteins was thoroughly washed by using TRITON X-100, solubilized in BM urea and passed through the Q-sepharose column to remove the bacterial proteins which interfered with subsequent refolding steps. HIV-1 protease was refolded from the urea to an active form by dialysis. As a final step, gel filtration chromatography was used to remove impurities after refolding. Activities of purified HIV-1 protease were examined using a fluorogenic substrate, 2-aminobenzoyl-Thr-Ile-Nle-Phe(pNO2)-Gln-Arg-NH2 (Novabiochem). […] Using the first rate equation, kcat is calculated. In the condition of So<<Km, v=Eo(kcat/Km)So, where Eo is the total enzyme concentration, and So is the substrate concentrate.

[2] = target: T1, HIV-1 protease; assay: HIV-1 Protease Inhibition Assay; format: biochemical
Text: Assays of the dose-response effect of inhibitor compounds can be described as a curve expressing a degree of inhibition as a function of concentration. The curve theoretically passes through a point at which the concentration is sufficient to reduce activity of the HIV protease enzyme to a level that is 50% that of the difference between minimal and maximal enzyme activity in the assay.
HIV-1 Protease Inhibition Assay
The HIV-1 protease gene was subcloned into the pET30a vector (Novagen) and then transformed into BL21 (dE3)pLysS cells for protein expression. Protein expression and purification were followed according to Tang's procedure (Hong et al., Biochemistry, 1996, 35, 10627-10633). […] The inclusion body containing some bacterial proteins was thoroughly washed by using TRITON X-100, solubilized in […] and passed through the Q-sepharose column to remove the bacterial proteins which interfered with subsequent refolding steps. HIV-1 protease was refolded from the urea to an active form by dialysis. As a final step, gel filtration chromatography was used to remove impurities after refolding. Activities of purified HIV-1 protease were examined using a fluorogenic substrate, 2-aminobenzoyl-Thr-Ile-Nle-Phe(pNO2)-Gln-Arg-NH2 (Novabiochem). […] In the condition of So<<Km, v=Eo(kcat/Km)So, where Eo is the total enzyme concentration, and So is the substrate concentrate. […] Assays are carried out as described by Toth and Marshall (Toth et al., Int. J. Pept. Protein Res., 1990, 36, 544-50).

[3] = cells marked (pM) in a column headed nM

CCCC[C@H](NC(=O)[C@@H](NC(=O)[C@@H](NC(=O)c1ccccc1N)[C@@H](C)O)[C@@H](C)CC)C(=O)N[C@@H](Cc1ccc([N+](=O)[O-])cc1)C(=O)N[C@@H](CCC(N)=O)C(=O)N[C@@H](CCCNC(=N)N)C(N)=O [2-aminobenzoyl-Thr-Ile-Nle-Phe(pNO2)-Gln-Arg-NH2] (H-[2Abz]TI[Nle][Phe(4-NO2)]QR-NH2)
Km [1]: 4.5 µM

CC(C)CN(C[C@@H](O)[C@H](Cc1ccccc1)NC(=O)OC1CC2CCO[C@@H]2C1)S(=O)(=O)c1ccc(O)c(O)c1 (stereo partly drawn) [Compound 88]
Ki ([2]; fluorogenic substrate assay): 1.2 nM
melting point: 80 to 82 °C

CNCc1ccc(S(=O)(=O)N(CC(C)C)C[C@@H](O)[C@H](Cc2ccccc2)NC(=O)OC2CO[C@H]3OCCC23)cc1 (stereo partly drawn) [Compound 119]
IC50 ([2]; fluorogenic substrate assay): 3500 pM
Ki ([2]; fluorogenic substrate assay): 1.1 nM
melting point: 57 to 62 °C

O=C(N[C@@H](Cc1ccccc1)[C@H](O)CN1CCCCCCCCCOc2ccccc2COC1=O)O[C@@H]1CC2CCO[C@@H]2C1 (stereo partly drawn) [Compound 228]
IC50 ([2]; fluorogenic substrate assay): 2.2e+06 pM
Ki ([2]; fluorogenic substrate assay): 638 nM

C=CCCCCN(C[C@@H](O)[C@H](Cc1ccccc1)NC(=O)O[C@H]1CO[C@H]2OCCC21)S(=O)(=O)c1cccc(OCC=C)c1 (stereo partly drawn) [Compound 229]
IC50 ([2]; fluorogenic substrate assay): 9100 pM
Ki ([2]; fluorogenic substrate assay): 2.1 nM

O=C(N[C@@H](Cc1ccccc1)[C@H](O)CN1CCCCCCCOc2cccc(c2)S1(=O)=O)O[C@H]1CO[C@H]2OCCC21 (stereo partly drawn) [Compound 231]
IC50 ([2]; fluorogenic substrate assay): 8600 pM
Ki ([2]; fluorogenic substrate assay): 2.7 nM

C=CCCCCN(C[C@@H](O)[C@H](Cc1ccccc1)NC(=O)O[C@H]1CO[C@H]2OCCC21)S(=O)(=O)c1cccc(OCCC=C)c1 (stereo partly drawn) [Compound 232]
IC50 ([2]; fluorogenic substrate assay): 5400 pM
Ki ([2]; fluorogenic substrate assay): 1.7 nM

O=C(N[C@@H](Cc1ccccc1)[C@H](O)CN1CCCC/C=C\CCOc2cccc(c2)S1(=O)=O)O[C@H]1CO[C@H]2OCCC21 (stereo partly drawn) [Compound 233]
IC50 ([2]; fluorogenic substrate assay): 8700 pM
Ki ([2]; fluorogenic substrate assay): 2.7 nM

O=C(N[C@@H](Cc1ccccc1)[C@H](O)CN1CCCCCCCCOc2cccc(c2)S1(=O)=O)O[C@H]1CO[C@H]2OCCC21 (stereo partly drawn) [Compound 234]
IC50 ([2]; fluorogenic substrate assay): 7300 pM
Ki ([2]; fluorogenic substrate assay): 2.3 nM

O=C(N[C@@H](Cc1ccccc1)[C@H](O)CN1CCCC/C=C\CCCCOc2cccc(c2)S1(=O)=O)O[C@@H]1CC2CCO[C@@H]2C1 (stereo partly drawn) [Compound 235]
IC50 ([2]; fluorogenic substrate assay): 9300 pM
Ki ([2]; fluorogenic substrate assay): 2.9 nM

O=C(N[C@@H](Cc1ccccc1)[C@H](O)CN1CCCCCCCCCCOc2cccc(c2)S1(=O)=O)O[C@@H]1CC2CCO[C@@H]2C1 (stereo partly drawn) [Compound 236]
IC50 ([2]; fluorogenic substrate assay): 11000 pM
Ki ([2]; fluorogenic substrate assay): 3.4 nM

C=CCCCCN(C[C@@H](O)[C@H](Cc1ccccc1)NC(=O)O[C@@H]1CC2CCO[C@@H]2C1)S(=O)(=O)c1cccc(C(O)CC=C)c1 (stereo partly drawn) [Compound 237]
IC50 ([2]; fluorogenic substrate assay): 10000 pM
Ki ([2]; fluorogenic substrate assay): 3.1 nM

O=C(N[C@@H](Cc1ccccc1)[C@H](O)CN1CCCCCCCC(O)c2cccc(c2)S1(=O)=O)O[C@@H]1CC2CCO[C@@H]2C1 (stereo partly drawn) [Compound 238]
IC50 ([2]; fluorogenic substrate assay): 4000 pM
Ki ([2]; fluorogenic substrate assay): 1.2 nM

O=C(N[C@@H](Cc1ccccc1)[C@H](O)CN1CCCC/C=C/CCCC(O)c2cccc(c2)S1(=O)=O)OCc1cccnc1 (stereo partly drawn) [Compound 239]
IC50 ([2]; fluorogenic substrate assay): 34000 pM
Ki ([2]; fluorogenic substrate assay): 11 nM

CC(C)CN(C[C@@H](O)[C@H](Cc1ccccc1)NC(=O)O[C@@H]1CCOC1)[C@H]1CCNC1=O [Compound 248]
Ki ([2]; fluorogenic substrate assay): 730 nM

CC(C)CN(C[C@@H](O)[C@H](Cc1ccccc1)NC(=O)O[C@H]1CO[C@H]2OCC[C@H]21)[C@H]1CCNC1=O [Compound 249]
Ki ([2]; fluorogenic substrate assay): 37 nM

CC(C)CN(C[C@@H](O)[C@H](Cc1ccccc1)NC(=O)O[C@H]1CO[C@H]2OCC[C@H]21)[C@@H]1C(=O)Nc2ccccc21 [Compound 250]
Ki ([2]; fluorogenic substrate assay): 1 nM

COc1ccc(S(=O)(=O)N(CC(C)C)C[C@@H](O)C(Cc2ccccc2)NC(=O)O[C@H]2CO[C@@H]3OCCC[C@@H]32)cc1 (stereo partly drawn) [Compound 253]
IC50 ([2]; fluorogenic substrate assay): 1000 pM

CC(C)CN(C[C@H](O)C(Cc1ccccc1)NC(=O)O[C@@H]1C[C@@H]2CCO[C@@H]2C1)S(=O)(=O)c1ccc(CO)cc1 (stereo partly drawn) [Compound 254]
IC50 ([2]; fluorogenic substrate assay): 1000 pM

CC(C)CN(C[C@@H](O)[C@H](Cc1ccccc1)NC(=O)O[C@@H]1CC2CCO[C@@H]2C1)S(=O)(=O)c1ccc(/C=N/O)cc1 (stereo partly drawn) [Compound 256]
IC50 ([2]; fluorogenic substrate assay): 1700 pM

CC(C)CN(C[C@@H](O)[C@H](Cc1ccccc1)NC(=O)O[C@@H]1CC2CCO[C@@H]2C1)S(=O)(=O)c1cccc(/C=N/O)c1 (stereo partly drawn) [Compound 257]
IC50 ([2]; fluorogenic substrate assay): 2900 pM

CC(C)CN(C[C@@H](O)[C@H](Cc1ccccc1)NC(=O)O[C@@H]1CC2CCO[C@@H]2C1)S(=O)(=O)c1ccc(O)c(O)c1 (stereo partly drawn) [Compound 258]
IC50 ([2]; fluorogenic substrate assay): 3900 pM

Cc1cc(S(=O)(=O)N(CC(C)C)C[C@@H](O)[C@H](Cc2ccccc2)NC(=O)O[C@@H]2CC3CCO[C@@H]3C2)ccc1CO (stereo partly drawn) [Compound 259]
IC50 ([2]; fluorogenic substrate assay): 2800 pM

CC(C)CN(C[C@@H](O)[C@H](Cc1ccccc1)NC(=O)O[C@@H]1CC2CCO[C@@H]2C1)S(=O)(=O)c1ccc(N)cc1 (stereo partly drawn) [Compound 261]
IC50 ([2]; fluorogenic substrate assay): 2200 pM

CC(C)CN(C[C@@H](O)[C@H](Cc1ccccc1)NC(=O)OC1CO[C@H]2OCC[C@@H]12)C1CC(C)(C)NC1=O (stereo partly drawn) [Compound 269]
IC50 ([2]; fluorogenic substrate assay): 3400 pM

CC(C)CN(C[C@@H](O)[C@H](Cc1ccccc1)NC(=O)OC1CO[C@H]2OCC[C@@H]12)C1CC2(CCCC2)NC1=O (stereo partly drawn) [Compound 270]
IC50 ([2]; fluorogenic substrate assay): 6400 pM

COc1ccc(S(=O)(=O)N(C[C@H]2CCC(=O)N2)C[C@@H](O)[C@H](Cc2ccccc2)NC(=O)OC(C)(C)C)cc1 [Compound 271, ((1S)-Benzyl-(2R)-hydroxy-3-[(4-methoxybenzene-sulfonyl)-(5-oxopyrrolidin-(2R)-ylmethyl)amino]-propyl)carbamic acid tert-butyl ester]
IC50 ([2]; fluorogenic substrate assay): 3000 pM

COc1ccc(S(=O)(=O)N(C[C@@H]2CCC(=O)N2)C[C@@H](O)[C@H](Cc2ccccc2)NC(=O)OC(C)(C)C)cc1 [Compound 272]
IC50 ([2]; fluorogenic substrate assay): 3420 pM

COc1ccc(S(=O)(=O)N(C[C@H]2CCC(=O)N2)C[C@@H](O)[C@H](Cc2ccccc2)NC(=O)OC2CO[C@H]3OCC[C@@H]23)cc1 (stereo partly drawn) [Compound 273]
IC50 [2, 3]: 17 pM

O=C1CC[C@H](CN(C[C@@H](O)[C@H](Cc2ccccc2)NC(=O)OC2CO[C@H]3OCC[C@@H]23)S(=O)(=O)c2ccc([N+](=O)[O-])cc2)N1 (stereo partly drawn) [Compound 274]
IC50 ([2]; fluorogenic substrate assay): 100 pM

O=C1CC[C@@H](CN(C[C@@H](O)[C@H](Cc2ccccc2)NC(=O)OC2CO[C@H]3OCC[C@@H]23)S(=O)(=O)c2ccc([N+](=O)[O-])cc2)N1 (stereo partly drawn) [Compound 275]
IC50 ([2]; fluorogenic substrate assay): 370 pM

Nc1ccc(S(=O)(=O)N(C[C@H]2CCC(=O)N2)C[C@@H](O)[C@H](Cc2ccccc2)NC(=O)OC2CO[C@H]3OCC[C@@H]23)cc1 (stereo partly drawn) [Compound 276]
IC50 [2, 3]: 20 pM

COc1ccc(S(=O)(=O)N(C[C@H]2CCC(=O)N2)C[C@@H](O)[C@H](Cc2ccccc2)NC(=O)OC2CC[C@H]3OCC[C@@H]23)cc1 (stereo partly drawn) [Compound 277]
IC50 ([2]; fluorogenic substrate assay): 100 pM

COc1ccc(S(=O)(=O)N(C[C@@H]2CCC(=O)N2)C[C@@H](O)[C@H](Cc2ccccc2)NC(=O)OC2CC[C@H]3OCC[C@@H]23)cc1 (stereo partly drawn) [Compound 278]
IC50 ([2]; fluorogenic substrate assay): 160 pM

O=C1CC[C@H](CN(C[C@@H](O)[C@H](Cc2ccccc2)NC(=O)OC2CC[C@H]3OCC[C@@H]23)S(=O)(=O)c2ccc([N+](=O)[O-])cc2)N1 (stereo partly drawn) [Compound 279]
IC50 ([2]; fluorogenic substrate assay): 340 pM

Nc1ccc(S(=O)(=O)N(C[C@H]2CCC(=O)N2)C[C@@H](O)[C@H](Cc2ccccc2)NC(=O)OC2CC[C@H]3OCC[C@@H]23)cc1 (stereo partly drawn) [Compound 281]
IC50 [2, 3]: 26 pM

COc1ccc(S(=O)(=O)N(C[C@@H]2CCC(=O)N2)C[C@@H](O)[C@H](Cc2ccccc2)NC(=O)OC2CO[C@H]3OCC[C@@H]23)cc1 (stereo partly drawn) [Compound 283]
IC50 [2, 3]: 14 pM

CC(C)(C)OC(=O)N[C@@H](Cc1ccccc1)[C@H](O)CN(C[C@H]1CCC(=O)N1)S(=O)(=O)c1ccc([N+](=O)[O-])cc1 [Compound 307a, {(1S)-Benzyl-(2R)-hydroxy-3-[(4-nitrobenzenesulfonyl)-(5-oxopyrrolidin-(2R)-ylmethyl)amino]propyl}-carbamic acid tert-butyl ester]
IC50 ([2]; fluorogenic substrate assay): 7000 pM

CC(C)(C)OC(=O)N[C@@H](Cc1ccccc1)[C@H](O)CN(C[C@@H]1CCC(=O)N1)S(=O)(=O)c1ccc([N+](=O)[O-])cc1 [Compound 307b]
IC50 ([2]; fluorogenic substrate assay): 12000 pM

CC(C)CN(C[C@@H](O)[C@H](Cc1ccccc1)NC(=O)OC(C)(C)C)C1CC2(CCCC2)NC1=O (stereo partly drawn) [Compound 528b]
IC50 ([2]; fluorogenic substrate assay): 386000 pM
